The values that follow are results of earlier work, collected in US7960102B2, “Regulated aptamer therapeutics” (Archemix Corp., priority 2002, dated 2011).

The series addresses N1 aptamer. The conditions noted are these: 10 nM labeled N1 aptamer, 1×SB, room temperature, three experiments; read-out: Kd of neomycin for aptamer (protection from T1 cleavage at G27).

What is called Kd is the concentration at which binding is half-saturated. neomycin: the Kd is 940 ± 60 nM.
